Measured values from ChEMBL document CHEMBL1157539, “Thousands of chemical starting points for antimalarial lead identification” (Nature, 2010).

These compounds were tested on Plasmodium falciparum (assay: GSK_TCMDC: Inhibition of Plasmodium falciparum 3D7 in whole erythrocytes, using parasite LDH activity as an index of growth.). Conditions: Plasmodium falciparum, 3D7.
Assay type: functional, organism-based
O=[N+]([O-])c1cc(/C=N/Nc2nc3nonc3nc2Nc2ccc(F)cc2)c(Cl)cc1Cl was tested, and the XC50 was 0.759 µM. In the case of Cc1cc(F)ccc1[C@H]1CNCCN1C(=O)N(C)[C@@H](C)c1cc(C(F)(F)F)cc(C(F)(F)F)c1, the XC50 is reported as 0.232 µM. Cc1cccc2nc(-c3ccc(-c4cccc(CN5CCCC(O)C5)c4)s3)[nH]c12 (stereo unspecified) gave an XC50 of 0.942 µM. With N#Cc1ccc(-n2cc(C(=O)Nc3ccc4c(c3)CCN(C3CCC3)CC4)c(C(F)(F)F)n2)cc1 the XC50 was 0.29 µM. For Cc1cc(Nc2ncc3c(n2)N(C2CCC2)CC3)ccc1N1CCN(C)CC1, the XC50 was 1.19 µM. With COc1cc(/C=C/C(=O)NCC(CCNc2cc(=O)c3ccccc3[nH]2)NCc2cc(Br)cc(Br)c2)cc(OC)c1 (stereo unspecified) the XC50 was 0.915 µM. For Cc1ccc(NC(=O)NC2CCN(c3ccnc4ccccc34)C2)cc1 (stereo unspecified), the XC50 was 0.709 µM. COc1ccc(-c2nc(NC(=O)CS(=O)(=O)c3ccc(F)cc3)sc2C)cc1 was tested, and the XC50 was 0.243 µM. With COc1cccc(CC(=O)N2CCC(n3c(C)nc4ccc(C)cc43)CC2)c1 the XC50 was 0.114 µM. Cc1cc(=O)c(-c2ccc(OCCSc3ccc(C(F)(F)F)cn3)cc2)c(C)[nH]1 showed an XC50 of 0.527 µM. With Nc1ncc(-c2cn[nH]c2)cc1-c1nc2cc(Cl)cnc2[nH]1 the XC50 was 0.915 µM. With Cc1cc(=NN=Cc2ccccn2)c2cc(F)ccc2[nH]1 the XC50 was 0.761 µM. Cc1oc(-c2ccc(Cl)cc2)cc1C(=O)NCCC1CCN(CCCCCNC(=O)/C=C/c2ccc(Cl)c(Cl)c2)CC1 gave an XC50 of 0.446 µM. Compound Cn1nccc1C(=O)NCCNCc1cccc(-c2csc(-c3nc4ccccc4[nH]3)c2)c1 has an XC50 of 0.84 µM. CC(C)CCn1c(Sc2ccc(C#N)c([N+](=O)[O-])c2)nnc1-c1ccc(Cl)cc1 gave an XC50 of 0.875 µM. With Nc1cccc(-c2ccc3ccnc(N)c3c2)c1 the XC50 was 0.796 µM. CCc1nc(N)nc(N)c1-c1ccc(C(C)C)cc1 showed an XC50 of 0.834 µM. CCCNc1nc(Nc2ccccc2C)nc2ccccc12 gave an XC50 of 0.887 µM. For CCOc1cc(Br)c(C(C)NC(=O)c2ccccc2)cc1OCC (stereo unspecified), the XC50 was 0.861 µM. FC(F)(F)c1ccc2[nH]ccc(=NN=Cc3ccccc3Cl)c2c1 was tested, and the XC50 was 0.799 µM. Compound COc1ccc(Cl)cc1NC(=O)Nc1ccc2c(c1)CCN(C1CCC1)CC2 has an XC50 of 0.814 µM. Work on C=CCc1cc(Br)ccc1OCCCON1C(N)=NC(N)=NC1(C)C yielded an XC50 of 0.0032 µM. For CCCC(=O)Nc1ccc(OCCN(Cc2ccccc2OC(F)(F)F)c2ccc(C(F)(F)F)c(C#N)c2)cc1, the XC50 was 0.788 µM. Work on Cc1cccc(C(=O)NC(NC(=S)Nc2cc(Cl)ccc2Cl)C(Cl)(Cl)Cl)c1 (stereo unspecified) yielded an XC50 of 1.27 µM. In the case of COc1ccc2nc(N)nc(C)c2c1, the XC50 is reported as 0.927 µM. For CN(C)c1ccc(-c2ccc(C(=O)NC3CCN(Cc4ccccc4F)CC3)s2)cc1, the XC50 was 1.4 µM. Cc1cccn2c(=O)c3cc(C(=O)NC4CCCCC4)c(=N)n(CCCn4ccnc4)c3nc12 gave an XC50 of 0.753 µM. Work on CCOC(=O)c1c(CNc2ccncc2)n(C)c2cc(Br)c(OC(C)=O)cc12 yielded an XC50 of 0.37 µM. N#Cc1ccc(N[C@@H](CC2CCCCC2)C(=O)Nc2ccc(-c3ccccc3)cc2)c2ccccc12 gave an XC50 of 0.597 µM. O=C(NC1CCN(c2ncc(C(F)(F)F)cc2Cl)CC1)c1cccs1 showed an XC50 of 0.897 µM. Cc1c2ccc(N(C)c3ccnc(Nc4ccc5c(c4)nc(NC(C)C)n5C)n3)cc2nn1C gave an XC50 of 0.159 µM. With COc1cc(O)c2c(=O)c(OC)c(-c3cccc(Cl)c3OC3O[C@H](CO)[C@@H](O)[C@H](O)[C@H]3O)oc2c1OC (stereo partly specified) the XC50 was 0.774 µM. For O=C(c1cccs1)N(Cc1cccc(-c2ccc(CNC3CCCC3)cc2)c1)C1CCN(Cc2ccccc2)CC1, the XC50 was 1.13 µM. COc1ccc2nccc([C@@H](O)CN3CCC(NC(=O)C(c4cc5ccccc5s4)N4CCN(c5ccccc5OC)CC4)CC3)c2c1 (stereo partly specified) was tested, and the XC50 was 0.16 µM. In the case of CC(=O)c1ccc(NC(=O)Nc2ccc(N(C)c3ccnc(NC4CC4)n3)cc2)cc1, the XC50 is reported as 0.805 µM. Compound CCN1CCC(N2CCC(n3c(C)nc4cc(C(F)(F)F)ccc43)CC2)CC1 has an XC50 of 1.02 µM. With CC[C@H]1CN2CCc3cc(OC)c(OC)cc3[C@@H]2C[C@@H]1CC1=NCCc2c1[nH]c1ccc(OCc3ccccc3)cc21 the XC50 was 0.772 µM. Work on O=C(CC1CCCC1)N(Cc1ccc(-c2ccc(CNC3Cc4ccccc4C3)cc2)cc1)CC1CCCCN1 (stereo unspecified) yielded an XC50 of 1.06 µM. For Cc1cc(N[C@@H](Cc2ccccc2)C(=O)NCCCOC(C)C)nc(NCCc2ccc(F)cc2)n1, the XC50 was 0.934 µM. Work on COc1cc(NCC2(CNCc3cn(Cc4ccccc4)c4ccccc34)CCCCC2)nc2ccccc12 yielded an XC50 of 0.946 µM. In the case of COc1ccc(C=NN=c2c3ccccc3[nH]c3ccccc23)c2ccccc12, the XC50 is reported as 1.13 µM. CC(C)NCc1cccc(-c2ccc(-c3nc4ccccc4[nH]3)cc2)c1 was tested, and the XC50 was 0.761 µM. Compound CN(C)CC1c2[nH]c3ccccc3c2CCN1C(=O)Nc1ccc(Cl)c(Cl)c1 (stereo unspecified) has an XC50 of 1.21 µM. Work on O=C1CCCN1CCCNCc1ccc(-c2cccc(-c3nc4cc(F)ccc4[nH]3)c2)cc1 yielded an XC50 of 0.659 µM. COc1cccc(C2CCN(CCN3CCC(CNC(=O)c4ccc(-c5ccc(C(F)(F)F)cc5)cc4)CC3)CC2)c1 showed an XC50 of 0.886 µM. Compound Cc1cc(N[C@@H](C)C(=O)Nc2ccccc2)nc(NCCc2ccc(F)cc2)n1 has an XC50 of 1.11 µM. For Cc1cccc(CN2CCCN(Cc3ccc(C(=O)Nc4ccc(C(C)(C)C)cc4)cc3)CC2)c1, the XC50 was 0.727 µM. Cc1cc2ccc(/C=C/C(=O)NC3CCC(CCN4CCc5ccc(C#N)cc5CC4)CC3)cc2[nH]1 (stereo unspecified) was tested, and the XC50 was 0.941 µM. With CC(C)(Oc1c(C2CCN(CCCCNC(=O)c3ccc(-c4ccc(C#N)cc4)cc3)CC2)ccc2c1CCCC2)C(N)=O the XC50 was 0.696 µM. For COc1ccccc1CC1CCCN(C2CCC(NC(=O)c3cc4ccccc4[nH]3)CC2)C1 (stereo unspecified), the XC50 was 0.842 µM. Compound COc1cccc2c(NCc3ccccc3)nc(NCCCN3CCCCC3C)nc12 (stereo unspecified) has an XC50 of 0.911 µM. O=C(Cn1c(SCc2cccc(F)c2F)cc(=O)c2ccccc21)N(Cc1ccc(-c2ccc(C(F)(F)F)cc2)cc1)C1CCN(CCO)CC1 showed an XC50 of 1.25 µM. Work on Cc1noc(C)c1-c1cccc(CNCc2ccc(-c3cccc(-c4nc5cc(C(F)(F)F)ccc5[nH]4)c3)cc2)c1 yielded an XC50 of 0.556 µM. In the case of COc1cccc2cc(C(=O)N[C@@H](CC(C)C)C(=O)NC3CC[C@@H](C)N(C(=O)Nc4ccncc4)CC3=O)oc12 (stereo partly specified), the XC50 is reported as 0.292 µM. Work on CC1=NN(c2ccc(C)c(C)c2)C(=O)C1=NNc1cccc(-c2cccc(NC(=O)OC(C)(C)C)c2)c1O yielded an XC50 of 0.695 µM. CCCCCC(C)C(C)c1cc(O)c2c(c1)OC(C)(C)CC2(O)c1ccccn1 (stereo unspecified) showed an XC50 of 0.741 µM. NC(=O)c1cccc(C(=O)Nc2cccc(-c3cccc(-c4nc5cc(F)ccc5[nH]4)c3)c2)c1 was tested, and the XC50 was 0.249 µM. In the case of O=C(NCc1ccc(Cl)c(Cl)c1)c1ccc(C2CCN(Cc3ccc4[nH]cnc4c3)CC2)cc1, the XC50 is reported as 0.957 µM. O=C(Nc1ccc(C(F)(F)F)cc1)NC1CCN(CCCCCNC(=O)C2CC2c2ccc(Cl)c(Cl)c2)CC1 (stereo unspecified) gave an XC50 of 0.626 µM. O=C(Nc1cccc(CN2CCCN(Cc3ccc4c(c3)OCO4)CC2)c1)c1ccc(Cl)c(Cl)c1 was tested, and the XC50 was 0.893 µM. In the case of CN1CCC(NCc2cccc(-c3ccc(S(=O)(=O)NCCN4CCCC4)s3)c2)CC1, the XC50 is reported as 0.928 µM. Compound COc1ccccc1-c1cccc(Nc2c(Nc3ccc(Cl)cc3)c(=O)c2=O)c1 has an XC50 of 0.878 µM. With c1ccc(CNc2cc(-c3ccccn3)nc(-c3ccccn3)n2)cc1 the XC50 was 0.302 µM. In the case of CC(C)CC(NC(=O)c1cccc(OCCN2CCOCC2)c1)C(=O)NC(/C=N/NC(=O)c1ccccc1)CCc1ccccc1 (stereo unspecified), the XC50 is reported as 0.251 µM. Compound CS(=O)(=O)n1c(CN2CCN(c3ncc(C(F)(F)F)cc3Cl)CC2)nc2ccccc21 has an XC50 of 1.06 µM. Work on CNC(=O)NC1CCN(Cc2c(-c3cccs3)nc3ccccc3c2C(=O)N[C@@H](C)C2CCCCC2)CC1 yielded an XC50 of 0.219 µM. COC(=O)C(NC(=O)c1ccc(-c2ccc(-c3nc4ccccc4[nH]3)s2)cc1)c1ccc(O)cc1 (stereo unspecified) showed an XC50 of 0.738 µM. With Cc1cccc2nc(-c3ccc(-c4cccc(NC(=O)c5cncn5C)c4)s3)[nH]c12 the XC50 was 0.645 µM. Cc1ccccc1C1CCN(C2CCC(NC(=O)/C=C/c3ccc4c(c3)OC(F)(F)O4)CC2)CC1 (stereo unspecified) showed an XC50 of 0.666 µM. Cc1cccc2nc(-c3ccc(-c4ccc(NC(=O)CN5CCN(C)CC5)cc4)s3)[nH]c12 was tested, and the XC50 was 1.02 µM. Cc1ccc(C(=O)Nc2cccc(CN3CCCN(Cc4ccc(O)cc4)CC3)c2)s1 showed an XC50 of 1 µM. Compound Cc1nnc2c(NC(=O)NC3CCCC3)cc3ccc(-c4cccc(CN5CCN(C)CC5)c4)cc3n12 has an XC50 of 0.917 µM. O=c1cc(NCCCNC2CCCc3c2ccc2ccccc32)[nH]c2ccccc12 (stereo unspecified) gave an XC50 of 0.824 µM. For CN1CCc2cc(O)c(NS(=O)(=O)c3ccc(-c4ccc(Cl)cc4)cc3)cc2CC1, the XC50 was 0.767 µM. Compound CCC(N)(C#Cc1ccc(-c2c(C)[nH]c(C)c(Br)c2=O)cc1)CC has an XC50 of 0.0415 µM. Compound COc1ccc(CNC(=O)NC2CCN(c3ccnc(Nc4ccc(F)cc4)n3)C2)cc1 (stereo unspecified) has an XC50 of 0.842 µM. In the case of CN(C)c1cc(NC(=O)Nc2ccc(SC(F)(F)F)cc2)c2ccccc2n1, the XC50 is reported as 0.14 µM. In the case of CO[C@H](C)[C@H](NC(=O)[C@H](CC(C)C)[C@H](CCC(F)(F)F)N(O)C=O)C(=O)Nc1nccs1, the XC50 is reported as 0.11 µM. Work on COc1ccc(CCNCC(O)c2cccc(Br)c2)c(Cl)c1OC (stereo unspecified) yielded an XC50 of 1.04 µM. In the case of CN1CCN(CCCN(Cc2cccc(-c3cccc(CNC4CCCC4)c3)c2)C(=O)/C=C/c2ccccc2)CC1, the XC50 is reported as 0.777 µM. With CCOc1cc(C(=O)NCCCN2CCCCC2C)ccc1-c1nc2cc(Cl)ccc2[nH]1 (stereo unspecified) the XC50 was 1.07 µM. In the case of CC(C)(C)CNCC(C)(C)c1nc(-c2ccc(Cl)c(O)c2)c(-c2ccncc2)[nH]1, the XC50 is reported as 0.601 µM. In the case of CC(O)C1CCCCN1C(=O)c1ccc(-c2ccc(-c3nc4cc(F)ccc4[nH]3)cc2)cc1 (stereo unspecified), the XC50 is reported as 0.435 µM. In the case of CN(C)CCNCc1ccc(-c2ccc3c(Nc4ccc(F)cc4Cl)ccnc3c2)o1, the XC50 is reported as 0.145 µM. Work on Cc1ncccc1C(=O)Nc1cccc(-c2cccc(-c3nc4cccc(C)c4[nH]3)c2)c1 yielded an XC50 of 0.956 µM. Work on CCCCc1cc(NCc2ccncc2)nc(Nc2cccc(OC)c2)n1 yielded an XC50 of 0.742 µM. Work on NC(=O)c1cc2nc(Nc3ccc(F)cc3)nc(Nc3ccc(S(N)(=O)=O)cc3)c2[nH]1 yielded an XC50 of 0.795 µM. For CCCC(C)Nc1nc(C)cc(N[C@@H](CC(C)C)C(=O)NCc2ccc(C)cc2)n1 (stereo partly specified), the XC50 was 1.01 µM. With CN(CCCN(C)c1cc(NC(=O)c2ccc(F)cc2)ccn1)Cc1cccc(F)c1 the XC50 was 1.22 µM. For CN(C)CCNc1ncnc2c1[nH]c1ccc(Br)cc12, the XC50 was 0.742 µM. Compound COC(=O)C(Cc1ccccc1)NC(=O)NC1CCN(c2ccnc(Nc3ccc(F)cc3)n2)C1 (stereo unspecified) has an XC50 of 1.09 µM. With N=C(N)NC(=O)Nc1cc(Cl)c(Cl)c(Br)c1 the XC50 was 0.611 µM. Work on Fc1ccc(C=NN=c2cc[nH]c3ccc(C(F)(F)F)cc23)cc1 yielded an XC50 of 1.1 µM. CC(C)(CN)c1nc(-c2ccc(Cl)c(O)c2)c(-c2ccncc2)[nH]1 showed an XC50 of 0.756 µM. With COc1ccc(-c2ccc(NC(=O)c3ccc(C#N)cc3)cc2)cc1CNC(C)C the XC50 was 0.529 µM. C(=C(c1cccs1)c1cccs1)c1ccc(CNC2CCN(Cc3ccccc3)CC2)cc1 showed an XC50 of 0.161 µM.
